Source: patent US11191765B2, “Heterocyclic compounds for the inhibition of PASK” (BioEnergenix LLC, priority 2012, dated 2021)

The molecules below were run against PASK (Invitrogen) (Homo sapiens (Human), UniProt Q96RG2) (assay: PAS Kinase FRET Assay). Details: TR-FRET (665 nm/615 nm), Ulight-peptide substrate, 2 hours at 25° C.; read-out: IC50 Kinase Domain.
Assay type: biochemical
Source text: The aim of the FRET assay is to determine the inhibition potential of test compounds on targeted kinase. This assay platform provides a homogenous screening method for measuring kinase activity by quantitating the amount of phospho-substrate in solution following a kinase reaction.
In the presence of kinase and ATP, the Ulight-peptide is phosphorylated and captured by an anti-phospho-substrate antibody, which brings the Eu chelate donor and Ulight acceptor dyes into close proximity. Upon excitation at 340 nm, the Eu chelate transfers its energy to the Ulight dye, resulting in a fluorescent light emission at 665 nm.
Titration of kinase at 1 mM ATP was achieved via the following protocol. After making serial three-fold dilutions of PASK (Invitrogen) in reaction buffer across the plate; 5 μl of kinase dilution and 5 μl substrate/ATP mix were added to the wells of the white Optiplate-384 (PerkinElmer). The contents of the plate were and incubated at RT for 1 h. The reaction was stopped by adding 5 μl of stop solution to each test well followed by mixing and incubation at RT for 10 minutes. 5 μl of detection mix (detection antibody diluted in detection buffer) was added; the contents of the plate were mixed and then incubated in the dark for 1 hour at RT. The signal was recorded at TR-FRET mode (665 nm/615 nm). The results were graphed to calculate the EC50.
Titration of ATP at the EC50 concentration of kinase to determine ATP Km,app. was performed using the following method. After making serial dilutions of ATP (Invitrogen), 5 μl of ATP dilution and 5 μl substrate/kinase mix were added to the wells of the white Optiplate-384 (PerkinElmer). The contents of the plate were and incubated at RT for 1 h. The reaction was stopped by adding 5 μl of stop solution to each test well followed by mixing and incubation at RT for 10 minutes. 5 μl of detection mix (detection antibody diluted in detection buffer) was added; the contents of the plate were mixed and then incubated in the dark for 1 hour at RT. The signal was recorded at TR-FRET mode (665 nm/615 nm). The results were graphed to calculate the EC50 as the ATP Km,app.
Compound screening was done via the following method. 10 mM stock solution of test compound in DMSO was prepared by dissolving test compound in DMSO at RT for 1 hour, and then sonicating at 100% output for 8 minutes. If compound is not soluble under this condition, it was diluted to 3 mM. Kinase reaction buffer was prepared containing 10 mM MgCl2, 50 mM HEPES, 1 mM EGTA, 0.01% TWEEN-20, 2 mM DTT. Serial dilutions of the test compounds were prepared at 4×final assay concentrations using Freedom EVO200® dispensing system as follows: 12×10^−5 M, 4×10^−5 M, 1.33×10^−5 M, 4.44×10^−6 M, 1.48×10^−6 M, 4.92×10^−7 M, 1.65×10^−7 M, 5.48×10^−7 M, 1.82×10^−8 M, 6.09×10^−9, 2.03×10^−9 M. Test compounds (2.5 μl at 4×the final assay concentration) was added to wells using Freedom EVO200® dispensing system. As a positive control, 2.5 μl of positive compound was added to assay wells, and 2.5 μl of DMSO to assay wells as vehicle control. Kinase solution was prepared in reaction buffer at 2×final assay concentration. Kinase solution (5 μl) was added to each well of the assay plate. The substrate and ATP solution was prepared in kinase reaction buffer at 4×final assay concentration. The kinase reaction was started by adding 2.5 μl of substrate+ATP mix solution to each well of the assay plate. The plate is mixed on a plate shaker; then covered and allowed to react for 2 hours in the dark at 25° C. without shaking. The reaction was stopped by adding 5 μl of stop solution to each test well followed by mixing and incubation at RT for 10 minutes in the dark. 5 μl of detection mix (detection antibody diluted in detection buffer) was added; the contents of the plate were mixed and then incubated in the dark for 1 hour at RT. The signal was recorded at TR-FRET mode (665 nm/615 nm).

Sequence of PASK (Invitrogen) (Q96RG2 999-1251): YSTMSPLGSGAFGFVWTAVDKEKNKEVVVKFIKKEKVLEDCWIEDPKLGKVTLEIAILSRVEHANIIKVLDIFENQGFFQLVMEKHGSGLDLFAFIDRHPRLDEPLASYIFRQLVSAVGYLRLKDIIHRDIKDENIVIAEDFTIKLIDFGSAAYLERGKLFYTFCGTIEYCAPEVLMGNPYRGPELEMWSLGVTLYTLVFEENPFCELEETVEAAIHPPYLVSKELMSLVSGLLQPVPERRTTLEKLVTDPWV

| Structure (SMILES) | IC50 |
| --- | --- |
| O=c1cc(-c2ccc3c(c2)OCO3)[nH]c2nc(Cc3ccccc3)nn12 [Example 1, 5-(Benzo[d][1,3]dioxol-5-yl)-2-benzyl-[1,2,4]triazolo[1,5-a]pyrimidin-7(4H)-one] | ≤ 10 µM |
| O=c1cc(-c2ccc3[nH]nnc3c2)[nH]c2nc(-c3ccccn3)nn12 [Example 2, 5-(1H-Benzo[d][1,2,3]triazol-5-yl)-2-(pyridin-2-yl)-[1,2,4]triazolo[1,5-a]pyrimidin-7(4H)-one] | ≤ 10 µM |
| O=c1cc(-c2ccc3[nH]ncc3c2)[nH]c2nc(-c3ccccn3)nn12 [Example 3, 5-(1H-Indazol-5-yl)-2-(pyridin-2-yl)-[1,2,4]triazolo[1,5-a]pyrimidin-7(4H)-one] | ≤ 10 µM |
| Cc1nc2[nH]c(-c3ccc4[nH]ncc4c3)cc(=O)n2n1 [Example 4, 5-(1H-indazol-5-yl)-2-methyl-[1,2,4]triazolo[1,5-a]pyrimidin-7(4H)-one] | ≤ 10 µM |
| CCc1nc2[nH]c(-c3ccc4[nH]ncc4c3)cc(=O)n2n1 [Example 5, 2-Ethyl-5-(1H-indazol-5-yl)-[1,2,4]triazolo[1,5-a]pyrimidin-7(4H)-one] | ≤ 10 µM |
| CCc1nc2[nH]c(-c3ccc4[nH]nnc4c3)cc(=O)n2n1 [Example 6, 5-(1H-Benzo[d][1,2,3]triazol-5-yl)-2-ethyl-[1,2,4]triazolo[1,5-a]pyrimidin-7(4H)-one] | ≤ 10 µM |
| CNC(=O)c1nc2[nH]c(-c3ccc4[nH]nnc4c3)cc(=O)n2n1 [Example 7, 5-(1H-Benzo[d][1,2,3]triazol-5-yl)-N-methyl-7-oxo-4,7-dihydro-[1,2,4]triazolo[1,5-a]pyrimidine-2-carboxamide] | ≤ 10 µM |
| O=c1cc(-c2ccc3[nH]ncc3c2)[nH]c2nc(-c3ccc(Cl)c(Cl)c3)nn12 [Example 10, 2-(3,4-Dichlorophenyl)-5-(1H-indazol-5-yl)-[1,2,4]triazolo[1,5-a]pyrimidin-7(4H)-one] | ≤ 10 µM |
| O=c1cc(-c2ccc3[nH]ncc3c2)[nH]c2nc(-c3cccc(Cl)c3)nn12 [Example 12, 2-(3-Chlorophenyl)-5-(1H-indazol-5-yl)-[1,2,4]triazolo[1,5-a]pyrimidin-7(4H)-one] | ≤ 10 µM |
| O=c1cc(-c2ccc3[nH]nnc3c2)[nH]c2nc(-c3cccc(Cl)c3)nn12 [Example 13, 5-(1H-Benzo[d][1,2,3]triazol-5-yl)-2-(3-chlorophenyl)-[1,2,4]triazolo[1,5-a]pyrimidin-7(4H)-one] | ≤ 10 µM |
| CC(C)c1nc2[nH]c(-c3ccc4[nH]nnc4c3)cc(=O)n2n1 [Example 14, 5-(1H-Benzo[d][1,2,3]triazol-5-yl)-2-isopropyl-[1,2,4]triazolo[1,5-a]pyrimidin-7(4H)-one] | ≤ 10 µM |
| Cc1nc2[nH]c(-c3ccc4c(c3)OCCO4)cc(=O)n2n1 [Example 16, 5-(2,3-Dihydrobenzo[b][1,4]dioxin-6-yl)-2-methyl-[1,2,4]triazolo[1,5-a]pyrimidin-7(4H)-one] | ≤ 10 µM |
| O=c1cc(-c2ccc3c(c2)OCCO3)[nH]c2ncnn12 [Example 17, 5-(2,3-Dihydrobenzo[b][1,4]dioxin-6-yl)-[1,2,4]triazolo[1,5-a]pyrimidin-7(4H)-one] | ≤ 10 µM |
| O=c1cc(-c2ccc3c(c2)OCCO3)[nH]c2nc(Cc3ccccc3)nn12 [Example 18, 2-Benzyl-5-(2,3-dihydrobenzo[b][1,4]dioxin-6-yl)-[1,2,4]triazolo[1,5-a]pyrimidin-7(4H)-one] | ≤ 10 µM |
| COc1ccc(-c2cc(=O)n3nc(Cc4ccccc4)nc3[nH]2)cc1 [Example 19, 2-Benzyl-5-(4-methoxyphenyl)-[1,2,4]triazolo[1,5-a]pyrimidin-7(4H)-one] | ≤ 10 µM |
| O=c1cc(-c2ccc3[nH]ncc3c2)[nH]c2nc(-c3ccc(F)cc3)nn12 [Example 20, 2-(4-Fluorophenyl)-5-(1H-indazol-5-yl)-[1,2,4]triazolo[1,5-a]pyrimidin-7(4H)-one] | ≤ 10 µM |
| CCn1ncc2cc(-c3cc(=O)n4nc(-c5ccc(F)cc5)nc4[nH]3)ccc21 [Example 21, 5-(1-Ethyl-1H-indazol-5-yl)-2-(4-fluorophenyl)-[1,2,4]triazolo[1,5-a]pyrimidin-7(4H)-one] | ≤ 10 µM |
